Experiments:
B16 melanoma = B16 melanoma mouse model; format: in vivo, C57BL/6 mice; details: 10mg/kg i.p. every other day for 9 days, day 8 and day 9, compared to vehicle-treated mice
Experimental: Animal experiments were approved by the regional ethics committee for animal research (N391/11 and N26/11), appointed and under the control of the Swedish Board of Agriculture and the Swedish Court. The animal experiments were in accordance with national regulations (SFS 1988:534, SFS 1988:539 and SFS 1988:541).
For the B16 melanoma mouse model, 6-weeks-old female C57BL/6 mice were injected subcutaneously with 1x10^6 B16 cells. When the tumors reached 80-120 mm^3, 10 mg/kg of 1d*HCl were administered intraperitoneally every other day for 9 days (days 1, 3, 5, 7, 9). Tumor volume was measured by caliper three times per week, and the volume was calculated based on the formula (in ml): L/10*W/10*W/10*0.44 (L=length, W=width of tumor). Mice were sacrificed when tumors reached 2 cm^3 or upon bleeding.
We tested the anti-tumor activity of 1d*HCl using allogenic model of B16 mice. We inoculated mice with B16 melanoma cells. When the tumors reached 100 mm^3, we treated them with i.p. injection of 1d*HCl, 10mg/kg every other day for 9 days. […] The differences in tumor volume between untreated control mice and animals treated with 1d*HCl are all statistically significant. Thus, 1d*HCl has in vivo anti-tumor activity in this animal tumor model.

[1] = Growth suppression with selenium in culture medium; format: cell-based; details: selenium added to culture medium
Excerpt: To find out whether the inhibition of TrxRl is the major mechanism of action of 1d*HCl, we addressed the question, whether stimulation of TrxRl activity will decrease the growth suppression activity of 1d*HCl. Since TrxR is a selenium-containing enzyme and the concentration of selenium is rate-limiting for TrxRl, we added selenium to culture medium to test whether selenium will alleviate the growth suppression by 1d*HCl.

[2] = target: T1, recombinant purified TrxRl (Homo sapiens, UniProt Q16881); assay: TrxR1 enzymatic activity measurement in vitro; format: biochemical; details: recombinant purified enzyme in vitro
T1 construct: made in house; host or cells: Release Factor 1-depleted E. coli strain
Experimental: TrxRl enzyme was recombinantly produced with high Sec contents in a specific Release Factor 1-depleted E. coli strain and purified as previously described (Arnér ESJ, Holmgren A, in Current Protocols in Toxicology, Maines M, Costa L, Reed D, Sassa S, Eds. (John Wiley & Sons, Inc., New York, 2000), pp. 7.4.1-7.4.14). TrxRl and GSR (Sigma) recombinant enzyme assays were performed in a reaction buffer containing 50 mM Tris pH 7.5 with 2 mM EDTA and 0.1 mg/mL bovine serum albumin as described previously (Arnér ESJ, Holmgren A, in Current Protocols in Toxicology, Maines M, Costa L, Reed D, Sassa S, Eds. (John Wiley & Sons, Inc., New York, 2000), pp. 7.4.1-7.4.14). Briefly, assays were performed in triplicate using 96-well plates, with activity inferred from absorbance changes using a Spectra Max plate reader. Results of recombinant enzyme assays were normalized to DMSO and to no enzyme controls.
We used recombinant purified TrxRl and GR in an in vitro assay as described in methods section.

[3] = system: HCT116 p53-/- and A375p53-/- cells; assay: Growth suppression in wild type p53 versus p53-negative isogenic cells; format: cell-based; details: HCT116 vs HCT116 p53-/-; A375 vs A375p53-/-
Experimental: Cells were grown in 96-well plates at a density of 3000 cells per well with or without doxycycline and treated with compounds. After 48 hours of incubation the proliferative cell reagent resazurin (Thermo Fisher Scientific) was added to the cells. The degree of resazurin reduction, which reflects cell viability, was measured by microplate reader by monitoring the absorbance at 570 nm and 600 nm, according to the manufacturer.
Since p53 is a major inducer of apoptosis, including ROS-induced apoptosis, we tested whether p53 plays a role in growth suppression by 1d*HCl. We used wild type p53 HCT116 cells and their isogenic p53-negative cell line HCT116 p53-/-, as well as a pair of wild type p53 A375 and p53-negative A375p53-/- melanoma cells, generated using CRISPR-Cas9, as described previously [Zhou X, Singh M, Sanz Santos G, Guerlavais V, Carvajal LA, Aivado M, Zhan Y, Oliveira MMS, Westerberg LS, Annis DA, Johnsen JI, Selivanova G. Pharmacologic activation of p53 triggers viral mimicry response thereby abolishing tumor immune evasion and promoting anti-tumor immunity Cancer Discov. ([…]), 11(12), 3090-3105]. […] This allowed us to conclude that the tumor suppression is p53 -independent. […]

γH2AX = assay: DNA damage detection by Western blot (phosphorylated histone H2AX); format: cell-based; details: HCT116 and MCF7
Experimental: The extraction of total cell lysates and western blot were performed according to standard procedure. The antibodies used for immunoblotting were: p53 (sc-126, Santa Cruz Biotechnology), γH2AX (#07-164, Millipore), TrxRl 19A1 (AbFrontier). Anti-β-actin monoclonal antibody (Millipore) was used as loading control. The horseradish peroxidase-coupled secondary antibodies (Jackson ImmunoResearch) and SuperSignal™ West Dura Extended Duration Substrate detection system (Thermo Fischer Scientific), and images were visualized using ChemiDoc Imaging System (Bio-Rad).
The majority of chemotherapeutic drugs used currently in the clinic, are DNA damaging drugs. Induction of DNA damage is a very efficient way of elimination of cancer cells. Unfortunately, these drugs induce DNA damage also in normal cells, leading to severe side effects. We addressed the question whether 1d*HCl induces DNA damage. We tested this by detection of a hallmark of DNA damage, induction of phosphorylated histone H2AX, so called γH2AX. We used anti-yH2AX antibody to detect it in cells treated with 1d*HCl.

T1 sequence (Q16881 151-649): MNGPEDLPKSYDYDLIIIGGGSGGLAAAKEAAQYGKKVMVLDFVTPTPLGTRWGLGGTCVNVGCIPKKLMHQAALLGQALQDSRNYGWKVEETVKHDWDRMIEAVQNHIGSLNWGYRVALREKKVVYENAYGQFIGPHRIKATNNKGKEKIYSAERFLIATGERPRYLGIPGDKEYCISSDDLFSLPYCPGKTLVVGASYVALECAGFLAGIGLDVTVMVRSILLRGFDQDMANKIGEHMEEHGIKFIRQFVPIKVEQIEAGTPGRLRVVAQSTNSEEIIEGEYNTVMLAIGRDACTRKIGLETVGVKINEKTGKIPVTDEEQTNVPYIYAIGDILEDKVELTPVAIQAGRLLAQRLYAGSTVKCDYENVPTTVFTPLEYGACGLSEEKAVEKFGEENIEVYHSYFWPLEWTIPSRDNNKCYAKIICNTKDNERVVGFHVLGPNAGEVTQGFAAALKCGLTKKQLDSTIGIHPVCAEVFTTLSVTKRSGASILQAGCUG

Cl.N#Cc1c(-c2cccnc2)[n+]([O-])c2cc(F)c(N3CCOCC3)cc2[n+]1[O-] [1d*HCl, 6-Fluoro-7-(morpholin-4-yl)-3-(pyridin-3-yl)quinoxaline-2-carbonitrile-1,4-dioxide hydrochloride]
tumor volume (B16 melanoma): lower volume of tumors | growth suppression in the presence of selenium [1]: less efficient | enzymatic activity of TrxRl [2]: efficiently inhibited the enzymatic activity of TrxRl in a dose- and time-dependent manner | growth suppression in the absence of p53 [3]: not affected in the absence of p53 | induction of γH2AX (γH2AX): negligible

Source: patent EP4201929A1, “QUINOXALINE THIOREDOXIN REDUCTASE INHIBITORS” (geneXplain GmbH, priority 2021, dated 2023)
